Data taken from patent US6479435B1, “Diaryl ethers and processes for their preparation and herbicidal and desiccant compositions containing them” (ISK Americas Incorporated, priority 1997, dated 2002).

Experiments:
Format in all cases: in vivo
[1] = system: Johnsongrass (Sorghum halepense, SORHA); test: Pre-emerge greenhouse herbicide test, phytotoxicity rating; conditions: 14 days after application, rating scale 0-100
Outline: (§1)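 Visual 0–100 injury rating (100 = all plants dead) taken 14 days after treatment. Rates of 125–1000 g ai/ha in acetone, 187 l/ha, were sprayed onto soil one day post-sowing; pots were surface-watered to incorporate, then bottom-watered.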

[2] = system: barnyardgrass (Echinochloa crusgalli, ECHCG); test: as above; conditions: 14 days after application, rating scale 0-100
Outline: as §1

[3] = system: common ragweed (Ambrosia artemisiifolia L., AMBEL); test: as above; conditions: 14 days after application, rating scale 0-100
Outline: as §1

[4] = system: green foxtail (Setaria viridis, SETVI); test: as above; conditions: 14 days after application, rating scale 0-100
Outline: as §1

[5] = system: ivyleaf morningglory (Ipomoea hederacea, IPOHE); test: as above; conditions: 14 days after application, rating scale 0-100
Outline: as §1

[6] = system: lambsquarters (Chenopodium album, CHEAL); test: as above; conditions: 14 days after application, rating scale 0-100
Outline: as §1

[7] = system: large crabgrass (Digitaria sanguinalis, DIGSA); test: as above; conditions: 14 days after application, rating scale 0-100
Outline: as §1

[8] = system: redroot pigweed (Amaranthus retroflexus, AMARE); test: as above; conditions: 14 days after application, rating scale 0-100
Outline: as §1

[9] = system: sicklepod (Cassia obtusifolia, CASOB); test: as above; conditions: 14 days after application, rating scale 0-100
Outline: as §1

[10] = system: velvetleaf (Abutilon theophrasti, ABUTH); test: as above; conditions: 14 days after application, rating scale 0-100
Outline: as §1

[11] = system: field corn (Zea mays L., var. Dekalb 535, CORN); test: Pre-emerge greenhouse test, crop damage rating; conditions: 14 days after application, rating scale 0-100
Outline: as §1

[12] = system: upland rice (Oryza sp., var.Tebonnet, RICE); test: Pre-emerge greenhouse test, crop damage rating; conditions: 14 days after application, rating scale 0-100
Outline: as §1

[13] = system: soybean (Glycine max L., var. Pella 86, SOY); test: Pre-emerge greenhouse test, crop damage rating; conditions: 14 days after application, rating scale 0-100
Outline: as §1

[14] = system: common ragweed (Ambrosia artemisiifolia L., AMBEL); test: Post-emerge greenhouse herbicide test, phytotoxicity rating; conditions: 14 days after application
Outline: (§2)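 Scores use a 0 (no damage) to 100 (complete kill) scale, taken 14 days after a foliar spray. Acetone solutions with 0.25% v/v non-ionic surfactant were applied by track sprayer at 187 l/ha and 63-1000 g ai/ha to bottom-watered 2-3 leaf plants.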

[15] = system: Johnsongrass (Sorghum halepense, SORHA); test: as above; conditions: 14 days after application
Outline: as §2

[16] = system: barnyardgrass (Echinochloa crusgalli, ECHCG); test: as above; conditions: 14 days after application
Outline: as §2

[17] = system: green foxtail (Setaria viridis, SETVI); test: as above; conditions: 14 days after application
Outline: as §2

[18] = system: ivyleaf morningglory (Ipomoea hederacea, IPOHE); test: as above; conditions: 14 days after application
Outline: as §2

[19] = system: lambsquarters (Chenopodium album, CHEAL); test: as above; conditions: 14 days after application
Outline: as §2

[20] = system: large crabgrass (Digitaria sanguinalis, DIGSA); test: as above; conditions: 14 days after application
Outline: as §2

[21] = system: redroot pigweed (Amaranthus retroflexus, AMARE); test: as above; conditions: 14 days after application
Outline: as §2

[22] = system: sicklepod (Cassia obtusifolia, CASOB); test: as above; conditions: 14 days after application
Outline: as §2

[23] = system: velvetleaf (Abutilon theophrasti, ABUTH); test: as above; conditions: 14 days after application
Outline: as §2

[24] = system: field corn (Zea mays L., var. Dekalb 535, CORN); test: Post-emerge greenhouse test, crop damage rating; conditions: 14 days after application
Outline: as §2

[25] = system: upland rice (Oryza sp., var.Tebonnet, RICE); test: Post-emerge greenhouse test, crop damage rating; conditions: 14 days after application
Outline: as §2

[26] = system: soybean (Glycine max L., var. Pella 86, SOY); test: Post-emerge greenhouse test, crop damage rating; conditions: 14 days after application
Outline: as §2

O=c1n(-c2cc(Oc3ccccc3)c(Cl)cc2F)c(=S)n2n1CCCC2 [Compound 8-5]
85: phytotoxicity rating DIGSA ([7]; 500 g ai/ha) | SOY crop damage rating (0-100) ([26]; 500 g al/ha)
20: phytotoxicity rating SORHA ([1]; 125 g ai/ha) | ECHCG phytotoxicity rating (0-100) ([16]; 63 g al/ha) | CORN crop damage rating (0-100) ([24]; 500 g al/ha)
60: phytotoxicity rating ECHCG ([2]; 500 g ai/ha) | SORHA phytotoxicity rating (0-100) ([15]; 500 g al/ha)
10: SORHA phytotoxicity rating (0-100) ([15]; 63 g al/ha) | RICE crop damage rating (0-100) ([25]; 500 g al/ha)
95: phytotoxicity rating AMARE ([8]; 125 g ai/ha) | phytotoxicity rating CASOB ([9]; 500 g ai/ha)
40: phytotoxicity rating AMBEL ([3]; 125 g ai/ha) | phytotoxicity rating DIGSA ([7]; 125 g ai/ha) | crop damage rating SOY ([13]; 500 g ai/ha)
90: IPOHE phytotoxicity rating (0-100) ([18]; 63 g al/ha)
25: crop damage rating RICE ([12]; 500 g ai/ha)
5: crop damage rating CORN ([11]; 500 g ai/ha) | CORN crop damage rating (0-100) ([24]; 63 g al/ha)
50: SOY crop damage rating (0-100) ([26]; 63 g al/ha)
0: phytotoxicity rating ECHCG ([2]; 125 g ai/ha) | phytotoxicity rating IPOHE ([5]; 125 g ai/ha) | crop damage rating CORN ([11]; 125 g ai/ha) | crop damage rating RICE ([12]; 125 g ai/ha) | crop damage rating SOY ([13]; 125 g ai/ha) | DIGSA phytotoxicity rating (0-100) ([20]; 63 g al/ha) | RICE crop damage rating (0-100) ([25]; 63 g al/ha)
80: phytotoxicity rating SETVI ([4]; 125 g ai/ha)
30: phytotoxicity rating SORHA ([1]; 500 g ai/ha) | phytotoxicity rating CASOB ([9]; 125 g ai/ha) | SETVI phytotoxicity rating (0-100) ([17]; 63 g al/ha)
65: SETVI phytotoxicity rating (0-100) ([17]; 500 g al/ha)
70: phytotoxicity rating IPOHE ([5]; 500 g ai/ha) | DIGSA phytotoxicity rating (0-100) ([20]; 500 g al/ha)
100: phytotoxicity rating AMBEL ([3]; 500 g ai/ha) | phytotoxicity rating SETVI ([4]; 500 g ai/ha) | phytotoxicity rating CHEAL ([6]; 125 g ai/ha) | phytotoxicity rating CHEAL ([6]; 500 g ai/ha) | phytotoxicity rating AMARE ([8]; 500 g ai/ha) | phytotoxicity rating ABUTH ([10]; 125 g ai/ha) | phytotoxicity rating ABUTH ([10]; 500 g ai/ha) | AMBEL phytotoxicity rating (0-100) ([14]; 500 g al/ha) | IPOHE phytotoxicity rating (0-100) ([18]; 500 g al/ha) | CHEAL phytotoxicity rating (0-100) ([19]; 63 g al/ha) | CHEAL phytotoxicity rating (0-100) ([19]; 500 g al/ha) | AMARE phytotoxicity rating (0-100) ([21]; 63 g al/ha) | AMARE phytotoxicity rating (0-100) ([21]; 500 g al/ha) | CASOB phytotoxicity rating (0-100) ([22]; 500 g al/ha) | ABUTH phytotoxicity rating (0-100) ([23]; 63 g al/ha) | ABUTH phytotoxicity rating (0-100) ([23]; 500 g al/ha)
55: AMBEL phytotoxicity rating (0-100) ([14]; 63 g al/ha) | ECHCG phytotoxicity rating (0-100) ([16]; 500 g al/ha) | CASOB phytotoxicity rating (0-100) ([22]; 63 g al/ha)
